# Measurements from US20170088851A1, “METHODS FOR IMPROVING ABIOTIC STRESS RESPONSE” (The Regents of the University of California, priority 2011, published 2017).
# Peptide text beside a SMILES is read from it. * marks the point of attachment. Cbz = O=C(OCc1ccccc1)*
# Key:
# [1] = system: MC-GUS; experiment: Western analysis of MC-GUS protein levels in seedlings treated with cPTIO; format: in vivo, Arabidopsis; settings: WT Col-0 seedlings treated with cPTIO
# Description: FIG. 14C Stability of MC-GUS in Col-0 is related to NO.
# [2] = system: HRE2; experiment: Western blot of HRE2 protein levels in vivo after cPTIO treatment; design: species or system Arabidopsis; settings: 35S CaMV promoter
# Description: FIG. 14D Stability of the physiological substrate HRE2 is controlled by NO. Western blot showing levels of HRE2 protein in-vivo (constitutive gene transcription produced from the 35S CaMV promoter).
# [3] = system: maplA mutant seeds; experiment: Seed sensitivity to ABA on germination in the presence of fumagillin; format: in vivo, Arabidopsis
# Description: FIG. 13B Proteins initiating MC control seed sensitivity to ABA.
# [4] = system: N-end rule pathway of targeted proteolysis (NERP); experiment: In vitro protein stability, heterologous rabbit reticulocyte lysate assay (TNT T7 Coupled Reticulocyte Lysate system, anti-HA immunoblot); format: biochemical; settings: for effect on in vitro stability of Arabidopsis Group VII ERFs: HA-tagged ERFs in reticulocyte lysate, 100 μM MG132 or 1 mM dipeptides; for MC-GUS degradation in the presence of the inhibitor: MC-GUS produced in rabbit reticulocyte lysate
# Method: Protein stability analyses. Full length cDNAs were PCR amplified from either Arabidopsis thaliana or Oryza sativa L. (cv. M202 (Sub1)). N-terminal mutations were introduced using a specific forward primer. For in vitro assays, cDNAs were cloned into a modified version of the pTNT vector (Promega) to produce C-terminal HA fusions. Stability assays were performed using the TNT T7 Coupled Reticulocyte Lysate system (Promega), essentially as described previously^23. For in vivo analysis of EIRE-HA proteins, cDNAs were cloned into pE2c, mobilized into pB2GW7 and transformed into Arabidopsis using the floral dip method. To Assess relative protein stability, equal amounts of total protein extracted from 7-day old T3 homozygous seedlings were analyzed by Western blot, and cDNA synthesized from total RNA was used as a template for semi-quantitative PCR.
# In vitro analysis of protein stability: To generate Arabidopsis and rice protein-HA fusions driven by the T7 promoter, cDNAs were PCR amplified from Arabidopsis total cDNA or submerged rice cDNA (M202 (Sub1); as described^3 and ligated into a modified version of the pTNT […] expression vector (pTNT3xHA). N-terminal mutations were incorporated by changing the forward primer sequences accordingly (Table 1). Proteins were expressed in vitro using the TNT T7 Coupled Reticulocyte Lysate system (Promega) according to manufacturer's guidelines, using 500 ng plasmid template. Where appropriate, 100 μM MG132 or 1 mM dipeptides (arg-β-ala or ala-ala; Sigma-Aldrich) and […] Bestatin (Sigma-Aldrich) were added. Reactions were incubated at 30° C., and samples were taken at appropriate time points before mixing with protein loading dye to terminate protein synthesis. Equal amounts of each reaction were subjected to anti-HA immunoblot analysis.
# Immunoblotting: Proteins resolved by SDS-PAGE were transferred to PVDF using a MiniTrans-Blot electrophoretic transfer cell (Bio-Rad). Membranes were probed with primary antibodies at the following titres: anti-HA (Sigma-Aldrich), 1:1000; anti-α-tubulin (Sigma-Aldrich), 1:5,000, or anti-ribosomal protein 5636, (1:5,000). HRP conjugated anti-mouse secondary antibody (Santa Cruz) was used at a titre of 1:10,000. Immunoblots were developed to film using ECL Western blotting substrate (Pierce). Alignment of MC-ERF proteins from Arabidopsis and Rice: Rice and Arabidopsis ERF proteins starting with the sequence MC- were aligned and phylogenetic relationships observed using CLUSTALW37.
# We investigated the possibility that all Arabidopsis Group VII ERFs as well as rice SUB1A-1 were NERP substrates.
Compound,effect on MC-GUS protein level [1],effect on HRE2 protein level [2],seed sensitivity to ABA when germinated in the presence of fumagillin [3],effect on in vitro stability of Arabidopsis Group VII ERFs [4],MC-GUS degradation in the presence of the inhibitor [4]
CC1(C)N([O])C(c2ccc(C(=O)O)cc2)=[N+]([O-])C1(C)C [cPTIO],MC-GUS protein accumulates,stabilises the protein,,,
CO[C@@H]1[C@H](OC(=O)/C=C/C=C/C=C/C=C/C(=O)O)CC[C@]2(CO2)[C@H]1[C@@]1(C)O[C@@H]1CC=C(C)C [fumagillin],,,hypersensitive to ABA,,
Arg-Ala,,,,stability was enhanced,not degraded
CC(C)C[C@@H](C=O)NC(=O)[C@H](CC(C)C)NC(=O)[C@H](CC(C)C)NC(=O)OCc1ccccc1 [MG132] (Cbz-Leu-Leu-Leu-aldehyde),,,,stability was enhanced,not degraded
